This passage reports MIC results from patent publication US9237749B2, “Antimicrobial combinations of pyrion compounds with polyethyleneimines” (Janssen Pharmaceutica N.V., priority 2010, dated 2016).

Where two headings read alike, the source gives them in different places.

Holding throughout (assay): Poison Plate Assay
Common to all, as to format: cell-based

The test system of assay [1] is Trichoderma viride CBS189.79. The conditions noted are these: CBS189, 336 h. On the procedure: (§1) • Name of component: sodium pyrithione (I-a) • PEI 1300 (II-a) having an average molecular weight of approximately 1300 • PEI 70000 (II-b) having an average molecular weight of approximately 70000 • PEI 750000 (II-c) having an average molecular weight of approximately 750000 • Test models: Fungi: to each well of a 24-well microtiter plate, 1000 μl of a rich (Potato Dextrose Agar, PDA: 4 g potato infusion, 20 g bacto dextrose and 15 g bacto agar in 1 liter deionised water) containing the appropriate combination of the test compounds in one of the concentrations of a dose series is added. The nutrient medium is inoculated with the test fungi by adding a spore/mycelium suspension (10 μl) or a small piece of agar from the margin of an actively growing colony and incubated under dark at 27° C. with 70% relative humidity. The growth of the fungi is evaluated after two weeks. • Concentrations: a 24-step doses series is applied, each step being 0.75 times the previous step, as follows: 25.00−18.75 . . . 0.04−0.03 ppm • Test combinations:
(§2) A. G. Nass (1957) “Some aspects of the notions additivity, synergism and antagonism in the simultaneous activity of two antibacterial agents in vitro” Arch. intern. Pharmacodynamie 109: 211-228; Steinberg, D. C. (2000) “Measuring synergy” cosmetics & Toiletries 115(11): 59-62; which is calculated as follows for two compounds A and B: […]
(§3) When the SI is equal to 1.0, additivity is indicated. […].

Assay [2] relates to Colletotrichum musae MUCL nr2. As to conditions: MUCLNR2, 336 h. On the procedure: as §1, §2, §3
Assay [3] has as its system Aspergillus niger CBS554.65. The conditions noted are these: CBS554, 336 h, read-out: MIC-values in ppm. As to the method: as §1, §2, §3
In assay [4] the test system is Humicola grisea MG28. As to conditions: Mycothermus thermophilus, MG28, 336 h, read-out: MIC-values in ppm. On the procedure: as §1, §2, §3
Where [5] appears, read: read-out: MIC-values in ppm, Table 1, (I-a) with PEI 1300 (II-a), PDA, 27° C., growth evaluated after two weeks.
Setting [6] is: read-out: MIC-values in ppm, Table 2, (I-a) with PEI 70000 (II-b), PDA, 27° C., growth evaluated after two weeks.

With `[O-][n+]1ccccc1S` [I-a, sodium pyrithione], the minimum inhibitory concentration (MIC) (commonly the lowest concentration that inhibits growth of the organism) was determined as 1.06 µg/mL in assay [1] (setting [5]); 1.06 µg/mL in assay [1] (setting [6]); 0.59 µg/mL in assay [1] (read-out: MIC-values in ppm, Table 3, (I-a) with PEI 750000 (II-c), PDA, 27° C., growth evaluated after two weeks); 0.06 µg/mL in assay [2] (setting [5]); 0.08 µg/mL in assay [2] (setting [6]); 0.25 µg/mL in assay [3]. Also, the MIC in assay [4] is 0.45 µg/mL.
